From patent US20100035925A1, “COMPOUNDS, PHARMACEUTICAL CO[…] DMETHODS FOR […] INFECTIVITY” ([…], INC, priority 2004, published 2010) come the findings set out here.

Series [1] relates to HIV drug resistant strains (pL10R and p1617-1). The series is classed as cell-based.

For `O=C(O)C[S+]([O-])c1ccc2c3c(cccc13)C(=O)c1ccccc1-2` (centres unmarked) [Compound 111], the cytotoxicity entry in the series on transfected 293 cells is “without significant cytotoxicity”.

On to `COc1ccc2c(Cc3c4ccccc4cc4ccccc34)cncc2c1O` [Compound 1334], for which, in series [1], the “inhibitory activity on HIV infectivity (in words)” value is listed as “lesser inhibitory activity”.
